Test results taken from US11767506B2, “In vitro maturation culture medium of immature oocytes and use thereof” (CHINA AGRICULTURAL UNIVERSITY, priority 2017, dated 2023).

What was measured:
[1] = tested on: mouse oocytes; assay: In vitro maturation of mouse immature oocytes (cumulus oocyte complexes) on mouse granule cells, fertilization and embryo culture; format: cell-based, C57/BL6J mice
From the text: The specific culture method was referred to Example 8, and the differences were: instead of the granule cells form patients, granule cells from C57/BL6J mice were used; instead of the oocytes form patients, cumulus oocyte complexes form C57/BL6J mice were used.

[2] = tested on: human ovary granule cells; assay: Expression/secretion of EGF-like growth factors (AREG) by granule cells; format: cell-based; conditions: FIG. 1F
Method: Correspondingly, our experiments were performed by: under conditions of in vitro culture, simulating the effect of LH, which functions on granule cells to promote the maturation of oocytes in vivo, so as to achieve the goal of promoting the maturation of oocytes and meanwhile, improving the development potential.

[3] = tested on: oocyte in follicle of mouse; assay: In vitro follicle culture model, recovery of oocyte meiosis; format: cell-based; conditions: FIG. 2A
[4] = tested on: human immature oocytes; assay: In vitro maturation of human immature oocytes on granule cell feeder layer, then ICSI and embryo culture; format: cell-based
Method: Microdrop culture of granule cells: the cumulus oocyte complex collected from superovulation of patients were digested with hyaluronidase and then centrifuged to obtain the granule cells; the cells were cultured in the culture solution for in vitro maturation of examples 1˜6 for microdroplet adherent culture respectively. The microdroplets were covered with liquid paraffin. After the granule cells adhered to the wall of the culture dishes, the resultants could be used as the culture medium 1˜6 for in vitro maturation of immature oocytes.
The immature oocytes identified from superovulation of patients were put in the culture medium for in vitro maturation 1 (i.e., the culture medium obtained by using the culture solution for in vitro maturation of Example 1) containing feeder layer cells for microdrop culture. There were 1˜2 oocytes per microdroplet, culture time 20˜25 h, and culture conditions: 37° C., air with 5% CO2 and 6% of O2, and humidity 100%. The development results of the immature oocytes after microdroplet culturing in the culture medium for in vitro maturation 1 were shown in FIG. 1.
Intracytoplasmic sperm injection (ICSI) using the mature oocytes: the immature oocytes were culture in vitro for 20˜25 h, the maturation status was observed. The oocytes reached the metaphase II (MII) were placed under micromanipulator for ICSI injection.
Embryo culture after fertilization: embryo culture medium G-1PLUS™ (Vitrolife, Sweden) was used to make several 50 μL microdroplets in a 35 mm culture dish. Mineral oil was covered on the surface of the droplets. This culture medium was suitable for culturing embryos from fertilized oocyte (0 day) to 8-cell embryo.
Embryo culture medium G-2 PLUS™ (Vitrolife. Sweden) was used to make several 50 μL microdroplets in a 35 mm Petri culture dish. Mineral oil was covered on the surface of the droplets. This culture medium was suitable for culturing embryos from 8-cell stage until blastocyst stage.
The common medium for maturation was M199 culture medium.

Cc1ccc(NC(=O)CCCCCC(=O)Nc2ccccc2N)cc1 [HDACi 4b]
maturation and development ability of mouse oocytes ([1]; FIG. 2): significantly promotes | oocyte stepping over the first meiosis to metaphase II (MII) ([1]; FIG. 2C): significantly promotes | cleavage abilities after fertilization ([1]; FIG. 2D, versus control group): basically the same | ability to develop into an embryo from fertilized GV stage oocytes ([1]; FIG. 2E): significantly improved | ability to develop into a blastocyst from fertilized treated oocytes ([1]; FIG. 2F): significantly increased | ability to develop into a blastocyst (blastocyst counting) from fertilized treated GV stage oocytes ([1]; FIG. 2H): significantly increased | quality of blastocysts (immunofluorescence of OCT4) ([1]; FIG. 2I): significantly increased | expression of AREG [2]: significantly promotes | recovery of oocyte meiosis in follicle of mouse [3]: significantly promotes | maturation and development of human oocytes from germinal vesicle (GV) stage into metaphase II (MII) stage ([4]; FIG. 1A): promotes the maturation and development | numbers of 2 pronucleus zygotes (2PN) obtained by ICSI fertilization on MII oocytes ([4]; FIG. 1B, treated group versus control group): basically the same | cleavage ability of treated oocytes after fertilization ([4]; FIG. 1C): significantly improved | development ability of embryos (blastocyst counting) ([4]; FIG. 1E): significantly increased | quality of blastocysts (immunofluorescence of OCT4 and CDX2) ([4]; FIG. 1G): significantly improved
